Reference: ChEMBL document CHEMBL1201862, “PubChem BioAssay data set” (2004)
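Briefly, cells in 96-well plates were exposed to five compound concentrations for 48 h, and endpoints were estimated by linear interpolation. GI50 = concentration required for 50% inhibition of growth.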 Calls of active or inactive are those of the source. Cut-off read from the data, not from the text of the source: active = GI50 up to about 1.1 µM and inactive = higher.

Tests used:
Assay in all cases: NCI anticancer screen, dose series, 48 h
786-0 = test system: 786-0
A498 = test system: A498
A549 = test system: A549
ACHN = test system: ACHN
BT-549 = test system: BT-549
CAKI-1 = test system: CAKI-1
CCRF-CEM = test system: CCRF-CEM
COLO 205 = test system: COLO 205
DU-145 = test system: DU-145
EKVX = test system: EKVX
HCC 2998 = test system: HCC 2998
HCT-116 = test system: HCT-116
HCT-15 = test system: HCT-15
HL-60 = test system: HL-60
HOP-62 = test system: HOP-62
HOP-92 = test system: HOP-92
HT-29 = test system: HT-29
Hs-578T = test system: Hs-578T
IGROV-1 = test system: IGROV-1
K562 = test system: K562
KM12 = test system: KM12
LOX IMVI = test system: LOX IMVI
M14 = test system: M14
MCF7 = test system: MCF7
MDA-MB-231 = test system: MDA-MB-231
MDA-MB-435 = test system: MDA-MB-435
MDA-N = test system: MDA-N
MOLT-4 = test system: MOLT-4
Malme-3M = test system: Malme-3M
NCI-H226 = test system: NCI-H226
NCI-H23 = test system: NCI-H23
NCI-H460 = test system: NCI-H460
NCI-H522 = test system: NCI-H522
NCI/ADR-RES = test system: NCI/ADR-RES
OVCAR-3 = test system: OVCAR-3
OVCAR-4 = test system: OVCAR-4
OVCAR-5 = test system: OVCAR-5
OVCAR-8 = test system: OVCAR-8
PC-3 = test system: PC-3
RPMI-8226 = test system: RPMI-8226
RXF 393 = test system: RXF 393
SF-268 = test system: SF-268
SF-295 = test system: SF-295
SF-539 = test system: SF-539
SK-MEL-28 = test system: SK-MEL-28
SK-MEL-2 = test system: SK-MEL-2
SK-MEL-5 = test system: SK-MEL-5
SN12C = test system: SN12C
SNB-19 = test system: SNB-19
SNB-75 = test system: SNB-75
SR = test system: SR
SW-620 = test system: SW-620
T47D = test system: T47D
TK-10 = test system: TK-10
U-251 = test system: U-251
UACC-257 = test system: UACC-257
UACC-62 = test system: UACC-62
UO-31 = test system: UO-31
SK-OV-3 = test system: SK-OV-3

Measured: GI50

CC(C)c1cc2c(c(O)c1O)[C@@]1(C)CCCC(C)(C)C1=C(O)C2
1.68 µM: HCT-15
inactive: 786-0 2.51 µM | A549 1.66 µM | ACHN 1.57 µM | BT-549 1.36 µM | COLO 205 2.84 µM | DU-145 3.03 µM | EKVX 1.37 µM | HCT-116 2.27 µM | HL-60 1.34 µM | HOP-62 2.78 µM | HT-29 6.75 µM | Hs-578T 1.81 µM | K562 1.6 µM | KM12 1.63 µM | LOX IMVI 1.21 µM | M14 2.36 µM | MDA-MB-231 > 50 µM | MDA-MB-435 1.23 µM | MDA-N 1.77 µM | MOLT-4 1.4 µM | Malme-3M 1.26 µM | NCI-H226 > 50 µM | NCI-H23 1.54 µM | NCI-H460 1.51 µM | NCI-H522 1.15 µM | OVCAR-3 1.38 µM | OVCAR-4 1.29 µM | OVCAR-5 1.83 µM | OVCAR-8 1.54 µM | PC-3 1.19 µM | SF-268 1.5 µM | SF-295 1.53 µM | SK-MEL-28 1.84 µM | SN12C 20.9 µM | SNB-19 2.42 µM | SR 1.7 µM | SW-620 1.46 µM | T47D 2.04 µM | TK-10 1.91 µM | U-251 1.51 µM | UACC-257 1.13 µM | UACC-62 31.8 µM | UO-31 1.36 µM
active: A498 1.12 µM | CAKI-1 1.05 µM | CCRF-CEM 0.822 µM | HCC 2998 1.01 µM | HOP-92 0.817 µM | IGROV-1 1.04 µM | MCF7 0.982 µM | NCI/ADR-RES 0.809 µM | RPMI-8226 0.946 µM | RXF 393 0.964 µM | SF-539 0.726 µM | SK-MEL-2 0.968 µM | SK-MEL-5 1.03 µM | SNB-75 0.984 µM

COc1ccc2c(c1OC)C(=O)O[C@@H]2[C@H]1c2cc3c(cc2CCN1C)OCO3
inactive: 786-0 > 100 µM | A498 > 100 µM | A549 > 100 µM | ACHN > 100 µM | BT-549 > 100 µM | CAKI-1 > 100 µM | CCRF-CEM > 10 µM | COLO 205 > 100 µM | DU-145 > 100 µM | EKVX > 100 µM | HCC 2998 > 100 µM | HCT-116 > 100 µM | HL-60 > 100 µM | HOP-62 > 100 µM | HOP-92 > 100 µM | HT-29 > 100 µM | Hs-578T > 100 µM | IGROV-1 > 100 µM | K562 > 100 µM | KM12 > 100 µM | LOX IMVI > 100 µM | M14 > 100 µM | MCF7 > 100 µM | MDA-MB-231 > 100 µM | MDA-MB-435 > 100 µM | MDA-N > 100 µM | MOLT-4 > 100 µM | NCI-H226 > 100 µM | NCI-H23 > 100 µM | NCI-H460 > 100 µM | NCI-H522 > 100 µM | NCI/ADR-RES > 100 µM | OVCAR-3 > 100 µM | OVCAR-4 > 100 µM | OVCAR-5 > 100 µM | OVCAR-8 > 100 µM | PC-3 > 100 µM | RPMI-8226 > 100 µM | SF-268 > 100 µM | SF-295 > 100 µM | SF-539 > 100 µM | SK-MEL-2 > 100 µM | SK-MEL-5 > 100 µM | SK-OV-3 > 100 µM | SN12C > 100 µM | SNB-19 > 100 µM | SNB-75 > 100 µM | SR > 100 µM | SW-620 > 100 µM | T47D > 100 µM | TK-10 > 100 µM | U-251 > 100 µM | UACC-257 > 100 µM | UACC-62 > 100 µM | UO-31 > 100 µM
> 100 µM: HCT-15

Oc1cccc2c(Cl)ccnc12
0.305 µM: HCT-15
inactive: 786-0 10.9 µM | A498 15.8 µM | A549 3.44 µM | ACHN 1.99 µM | BT-549 13.7 µM | CAKI-1 2.39 µM | COLO 205 14.3 µM | DU-145 5.51 µM | EKVX 11.7 µM | HCC 2998 4.43 µM | HOP-62 1.95 µM | HOP-92 2.84 µM | HT-29 9.51 µM | Hs-578T 7.93 µM | IGROV-1 1.61 µM | KM12 4.93 µM | M14 1.44 µM | MDA-MB-231 1.13 µM | MDA-MB-435 2.67 µM | MDA-N 3.58 µM | Malme-3M 6.97 µM | NCI-H226 7.45 µM | NCI-H23 3.15 µM | NCI-H460 3.08 µM | NCI/ADR-RES 2.3 µM | OVCAR-4 1.7 µM | OVCAR-5 5.22 µM | PC-3 1.67 µM | SF-539 2.11 µM | SK-MEL-28 7.69 µM | SK-MEL-5 1.22 µM | SK-OV-3 32.9 µM | SN12C 1.2 µM | SNB-19 23 µM | SNB-75 28.5 µM | TK-10 44.3 µM | U-251 1.45 µM | UACC-257 3.1 µM | UO-31 1.37 µM
active: CCRF-CEM 0.266 µM | HCT-116 0.279 µM | HL-60 0.124 µM | K562 0.42 µM | LOX IMVI 0.384 µM | MCF7 1.11 µM | MOLT-4 0.376 µM | NCI-H522 0.741 µM | OVCAR-3 0.287 µM | OVCAR-8 0.372 µM | RPMI-8226 0.499 µM | RXF 393 0.83 µM | SF-268 0.522 µM | SF-295 0.889 µM | SR 0.243 µM | SW-620 0.778 µM | T47D 0.397 µM | UACC-62 0.362 µM
